Our source for the MIC values is patent publication US8168797B2, “Oxazolidinone derivative with difluorophenyl moiety, pharmaceutically acceptable salt thereof, preparation method thereof and antibiotic composition containing the same as an active ingredient” (Korea Institute of Science and Technology, priority 2008, dated 2012).

SMILES strings stand for the structures. Values after ≈ are worked out from the molar mass of the structure shown.

Type in all cases: cell-based
For experiment [1], the system named is Gram-positive strains and resistant bacteria including MRSA and vancomycin resistant enterococci. Kind of experiment: MIC by agar dilution, text summary over the strain panel. Particulars: read-out: MIC against Haemophilus influenza, Coagulase negative staphylococci and vancomycin resistant enterococci (VRE). An excerpt: (§1) To this end, the compound of Example 2 and the currently used oxazolidinone class Linezolid were examined for minimal inhibitory concentration (hereinafter, referred to as “MIC”) against Gram-positive strains and resistant bacteria including methicillin-resistant Staphylococcus aureus (MRSA) and vancomycin resistant enterococci by an agar dilution method using Muller-Hinton agar.
(§2) As used herein, the term MIC is intended to refer to the lowest concentration of an antibiotic that will inhibit the growth of a microorganism. MIC values are expressed as μg/ml. Bacterial strains used for this assay included Haemophilus influenza, Coagulase negative staphylococi, Staphylcoccus aureus (MRSA), Enterococcus faecalis (VER), Enterococcus faecium (VR 1, VR 2), and Vancomycin resistant enterococci 1˜6.
(§3) After being incubated for 18 hours in a Muller-Hinton broth, the strains were transferred to fresh broth at a concentration of approximately 10^7 CFU/ml. Isolates were distributed with a multipoint inoculator (MIC-2000 Dynatech) at 10^4 CFU per spot onto agar plates containing the compound of the Examples or Comparative Examples.

Experiment [2] relates to Haemophilus influenza. Kind of experiment: MIC by agar dilution method using Muller-Hinton agar. Conditions: read-out: Inhibitory Activity (MIC); strain a: Haemophilus infuenz.
Text: as §1, §2, §3

In experiment [3] the test system is Coagulase negative staphylococi. Described as above. Particulars: read-out: Inhibitory Activity (MIC); strain b: Coagulase negative staphylococi.
Text: as §1, §2, §3

For experiment [4], the system named is Vancomycin resistant enterococci 5. Kind of experiment: organism not typed. Conditions: read-out: Inhibitory Activity (MIC).
Text: as §1, §2, §3

Experiment [5] relates to Vancomycin resistant enterococci 6. The experiment can be described thus: organism not typed. Particulars: read-out: Inhibitory Activity (MIC).
Text: as §1, §2, §3

Experiment [6] relates to Vancomycin resistant enterococci 4. Kind of experiment: organism not typed. Particulars: read-out: Inhibitory Activity (MIC).
Text: as §1, §2, §3

In experiment [7] the test system is Enterococcus faecalis (VRE). Kind of experiment: MIC by agar dilution method using Muller-Hinton agar. Conditions: strain d: Enterococcus faecalis (VRE); read-out: Inhibitory Activity (MIC).
Text: as §1, §2, §3

The subject of experiment [8] is Enterococcus faecium (VR 1). The experiment is described as above. Conditions: strain e: Enterococcus faecium (VR 1); read-out: Inhibitory Activity (MIC).
Text: as §1, §2, §3

The test system of experiment [9] is Enterococcus faecium (VR 2). Described as above. Particulars: strain f: Enterococcus faecium (VR 2); read-out: Inhibitory Activity (MIC).
Text: as §1, §2, §3

In experiment [10] the test system is Vancomycin resistant enterococci 1. Described as above. Conditions: strain g: Vancomycin resistant enterococci 1; read-out: Inhibitory Activity (MIC).
Text: as §1, §2, §3

The test system of experiment [11] is Staphylcoccus aureus (MRSA). The experiment is described as above. Particulars: Staphylococcus aureus; strain c: Staphylcoccus aureus (MRSA); read-out: Inhibitory Activity (MIC).
Text: as §1, §2, §3

Experiment [12] concerns Vancomycin resistant enterococci 3. Described as above. Particulars: strain i: Vancomycin resistant enterococci 3; read-out: Inhibitory Activity (MIC).
Text: as §1, §2, §3

For experiment [13], the system named is Vancomycin resistant enterococci 2. Described as above. Conditions: strain h: Vancomycin resistant enterococci 2; read-out: Inhibitory Activity (MIC).
Text: as §1, §2, §3

On to `CC(=O)NC[C@H]1CN(c2ccc(N3CCOCC3)c(F)c2)C(=O)O1` [Linezolid, reference compound], for which the figures for the MIC in experiment [1], in experiment [2] and in experiment [3] were 1.56 to 3.12 µg/mL (≈ 4.63 to 9.26 µM), 3.12 µg/mL (≈ 9.26 µM) and 3.12 µg/mL (≈ 9.26 µM), respectively.

Take `CC(=O)NC[C@H]1CN(c2cc(F)c(N3CC(F)C4(CC4)C3)c(F)c2)C(=O)O1` (stereo partly drawn) [Example 2, (S)—N-{{3-[3,5-Difluoro-4-(7-fluoro-5-azaspiro[2,4]heptan-5-yl)phenyl]-2-oxo-5-oxazolidinyl}methyl}acetamide]: the MIC in experiment [4] was 0.781 µg/mL (≈ 2.04 µM); in experiment [5] it was 0.781 µg/mL (≈ 2.04 µM); in [6], 0.781 µg/mL (≈ 2.04 µM); in experiment [7] it was 1.56 µg/mL (≈ 4.08 µM); in [2], 0.781 µg/mL (≈ 2.04 µM); in experiment [8], 1.56 µg/mL (≈ 4.08 µM). In addition, the MIC was 1.56 µg/mL (≈ 4.08 µM) in experiment [9]; 3.12 µg/mL (≈ 8.15 µM) in experiment [10]; 1.56 µg/mL (≈ 4.08 µM) in experiment [11]; 0.781 µg/mL (≈ 2.04 µM) in experiment [3]; 3.12 µg/mL (≈ 8.15 µM) in [12]; 1.56 µg/mL (≈ 4.08 µM) in experiment [13].
